Patent US20100056552A1, “COMBINATION FOR USE IN THE TREATMENT OF INFLAMMATORY DISORDERS” (priority 2007, published 2010)

Experiments:
[1] = system: MonoMac-6 (MM6) cells; test: PMA-induced TNF release from MonoMac-6 macrophages (Human TNF ELISA); format: cell-based; details: n=2; for mean TNF concentration after PMA stimulation: 48 h treatment, then PMA 10 ng/mL 5 h, untreated cells 41.1 pg/mL
Experimental: (§1) Cells from the human macrophage cell-line MonoMac-6 (MM6) (Ziegler-Heitbrock et al, Int. J. Cancer, 41, 456 (1988)) were cultured (37° C./5% CO2) in RPMI-1640 medium supplemented with 1 mM sodium pyruvate, × nonessential amino acids, 10 μg/mL insulin, 1 mM oxalacetic acid, 100 units/mL penicillin, 100 μg/mL streptomycin and 5% (v/v) fetal bovine serum. At the start of the experiment, MM6 cells were seeded in 96-well plates at a density of 1×10^5 cells/mL (100 μL per well in cell the viability experiments, and 150 μL per well in the TNF release experiments—see below).
(§2) The MM6 cells were treated (incubation conditions as above) with indicated final concentrations of the test drugs for 48 hours prior to quantification of cell viability/growth or stimulation with phorbol-12-myristate-13-acetate (PMA; Sigma Aldrich, Stockholm, Sweden) followed by measurement of PMA-induced TNF-release (see below for details).
To stimulate formation and release of tumor necrosis factor (TNF), the MM6 cells were incubated (37° C./5% CO2) for five hours (in RPMI-1640 with 5% fetal bovine serum with supplements as above) with PMA at a final concentration of 10 ng/mL.
After spinning down the cells after the different MM6 incubations/stimulations (see above and below), the concentrations of TNF in the supernatants were quantitated using Human TNF ELISA Kit II from BD Biosciences—Pharmingen (San Diego, USA) according to instructions supplied by the manufacturer.
(§3) Stock solutions of suplatast (tosylate salt purchased from American Custom Chemicals Corporation, San Diego, USA) and rosuvastatin (sodium salt; rosuvastatin was extracted and purified from commercially available Crestor® tablets and isolated as sodium salt as described in Bioorganic & Medicinal Chemistry, Vol. 5, No. 5, pp 437-444, 1997) were made in sterile saline.

[2] = MM6 cell growth/viability (WST-1 reagent); format: cell-based; details: human, MonoMac-6 (MM6) macrophage cell line, n=3, read-out: viability of MM6 cells compared to untreated MM6 cells; for viability at 48 h, 10 μM: drug alone 10 μM
Experimental: as §1, §2
MM6 cell growth/viability was measured using the Cell Proliferation Reagent WST-1 (Roche Diagnostics Scandinavia AB, Bromma, Sweden). The WST-1 reagent is designed to be used for spectrophotometric quantification of e.g. cell growth and viability and. was used according to the manufacturers' instructions.
as §3

## CC(C)c1c(C(=O)Nc2ccccc2)c(-c2ccccc2)c(-c2ccc(F)cc2)n1CC[C@@H](O)C[C@@H](O)CC(=O)O [atorvastatin]
[1]; drug alone 10 μM
  mean TNF concentration after PMA stimulation: 133.6 pg/mL
[1]; drug alone 30 μM
  mean TNF concentration after PMA stimulation: 59.7 pg/mL

## CC(C)c1nc(N(C)S(C)(=O)=O)nc(-c2ccc(F)cc2)c1/C=C/[C@@H](O)C[C@@H](O)CC(=O)O [rosuvastatin]
[1]; drug alone 10 μM
  mean TNF concentration after PMA stimulation: 76.7 pg/mL
[1]; drug alone 30 μM
  mean TNF concentration after PMA stimulation: 84.0 pg/mL
[2]
  viability at 48 h, 10 μM: 105%
[2]; drug alone 30 μM
  viability at 48 h, 30 μM: 102%

## CCOCC(O)COc1ccc(NC(=O)CC[S+](C)C)cc1 (stereo not drawn) [suplatast]
[1]; drug alone 1 μM
  mean TNF concentration after PMA stimulation: 39.6 pg/mL
  decrease in mean TNF concentration compared to the untreated cells: 3.8%
[1]; drug alone 10 μM
  mean TNF concentration after PMA stimulation: 34.8 pg/mL
  decrease in mean TNF concentration compared to the untreated cells: 15.4%
[2]; drug alone 1 μM
  viability at 48 h, 1 μM: 94%
[2]
  viability at 48 h, 10 μM: 92%
